Test results taken from US20100256206A1, “CRYSTALLINE FORM B OF OLMESARTAN MEDOXOMIL” (priority 2007, published 2010).

Tests used:
[1] = cited from earlier work
[2] = DSC and XRPD experiments, polymorphic transition; assay type: physicochemical
Protocol: The X-ray powder diffraction data was obtained by methods known in the art using a Bruker D8 Advance Powder Diffractometer with scintillation detector under the following parameters: Reflection mode Cu Kα radiation (1.5406 Å) Scanning range: 2-50 °2θ Step size: 0.02 °2θ Time per step: 2 s The powder obtained by the process according to the invention as described above and in the following examples was also subjected to Differential Scanning Calorimetry (DSC). The DSC thermal analysis data was obtained using a Mettler-Toledo DSC821e apparatus under the following parameters: • Temperature profile: 25-300° C. @ 5° C./min • Nitrogen purge gas, 50 ml/min • Aluminium pan, […], pierced prior to scan The powder obtained by the process according to the invention as described above and in the following examples was also subjected to Thermo-Gravimetric Analysis (TGA). […] Indeed, the DSC and XRPD experiments indicate that no polymorphic transition of crystalline form B occurs up to temperatures of ca. 170° C.

[3] = Thermo-Gravimetric Analysis (TGA) of the powder; assay type: physicochemical; details: at processing temperatures and storage temperatures; TGA 25-300° C. @ 5° C./min
Protocol: The powder obtained by the process according to the invention as described above and in the following examples was also subjected to Thermo-Gravimetric Analysis (TGA). […] Indeed, the DSC and XRPD experiments indicate that no polymorphic transition of crystalline form B occurs up to temperatures of ca. 170° C.
The TGA analysis data was obtained using a Mettler-Toledo TGA851e apparatus under the following parameters:
Temperature profile: 25-300° C. @ 5° C./min
Nitrogen purge gas, 50 ml/min
Aluminium pan, […], pierced prior to scan

| temperature up to which no polymorphic transition occurs [2] | chemical stability, degradation by conversion to other polymorphic forms [3] | Structure (SMILES) | aqueous solubility [1] |
| --- | --- | --- | --- |
| – | – | CCCc1nc(C(C)(C)O)c(C(=O)OCc2oc(=O)oc2C)n1Cc1ccc(-c2ccccc2-c2nnn[nH]2)cc1 [Olmesartan medoxomil, 2,3-dihydroxy-2-butenyl 4-(1-hydroxy-1-methylethyl)-2-propyl-1-[p-(o-tetrazol-5-yl-phenyl)benzyl]imidazole-5-carboxylate cyclic 2,3-carbonate] | very low |
| ca. 170 °C | chemically stable | CCCc1nc(C(C)(C)O)c(C(=O)OCc2oc(=O)oc2C)n1Cc1ccc(-c2ccccc2-c2nnn[nH]2)cc1 [crystalline form B, 2,3-dihydroxy-2-butenyl 4-(1-hydroxy-1-methylethyl)-2-propyl-1-[p-(o-tetrazol-5-yl-phenyl)benzyl]imidazole-5-carboxylate cyclic 2,3-carbonate] | – |
